Source: patent US20240041890A1, “ANTI-HAIR-LOSS COMPOSITION” (WELLA GERMANY GMBH, priority 2020, published 2024)

Legend:
human hair follicles = conditions: by decreasing apoptosis and increasing the production of growth factor IGF-1; cited from earlier work
[1] = molecular target: T1, olfactory receptor OR2AT4 (Homo sapiens, UniProt A6NND4); conditions: OR2AT4 expressed in the epithelium of human hair follicles; cited from earlier work
T1 sequence (A6NND4 1-320): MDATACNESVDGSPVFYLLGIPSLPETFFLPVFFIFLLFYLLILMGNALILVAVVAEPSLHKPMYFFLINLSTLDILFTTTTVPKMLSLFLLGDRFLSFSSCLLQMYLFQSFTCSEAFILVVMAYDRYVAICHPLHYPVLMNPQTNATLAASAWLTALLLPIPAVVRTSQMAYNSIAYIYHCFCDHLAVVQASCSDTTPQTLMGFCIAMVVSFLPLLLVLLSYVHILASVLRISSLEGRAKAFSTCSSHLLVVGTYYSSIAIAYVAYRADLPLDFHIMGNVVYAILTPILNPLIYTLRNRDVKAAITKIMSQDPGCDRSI

[2] = test system: hair follicles in human full thickness scalp skin punches; test: Microscopic hair cycle staging and hair cycle score in ex vivo cultured scalp skin; assay type: cell-based; conditions: for hair cycle score ± SEM: 100 = anagen, 200 = early catagen, 300 = mid catagen, 400 = late catagen, lower number = more hairs in anagen; for % of hair follicles in anagen phase / % of hair follicles in early catagen phase: two topical treatments (day 1 and 3), evaluated after 5 days of ex vivo culture
Description: Human full thickness scalp skin punches (6 mm diameter) with hair from the occipital region were obtained from a donor. The dissected human punches were cultured at 37° C. with 5% CO2 in a minimal media of William's E media (Gibco, Life Technologies) supplemented with 10 ng/ml hydrocortisone (Sigma Aldrich), 10 μg/ml insulin (Sigma Aldrich) and 1% penicllin/streptomycin (Gibco) to make William's Complete Media (WCM) modified as previously described (Edelkamp et al., Molecular Dermatology 2020, Langan et al., Exp Dermatol 2015). After 24 h resting culture (day 0), two topical treatments were Performed (day 1 and 3). The medium was changed at day 3. Punches were embedded in OCT Compound (Optimal Cutting Temperature Compound) after 5 days (day 5) of ex vivo culture and cryosectioned (7 μm sections). The experimental groups for the topical treatments are outlined in Table 3.
Hair cycle staging and hair cycle score are perfomed at the end of the culture and can be determined according to several established macroscopic and microscopic paremeters (Langan et al., Exp Dermatol 2015; Oh et al., JID 2016).
Hair follicles are microscopically evaluated for the hair cycle staging using Masson-Fontana histochemistry and Ki-67/TUNEL immunostaining as previously described (Kloepper at al., Exp Dermatol 2010; Langan et al., Exp Dermatol 2015). For each experimental group, the percentage of hair follicles in each hair cycle phase was calculated and is shown below.

Row | Compound | effect on hair growth ex vivo (human hair follicles) | effect on the olfactory receptor OR2AT4 [1] | hair cycle score ± SEM [2] | effect on anagen (in words) ([2]; topical application on ex vivo cultured scalp skin) | % of hair follicles in anagen phase [2] | % of hair follicles in early catagen phase [2]
1 | CC1=CCC(CCC(C)C(C)O)C1(C)C (stereo not drawn) [#2 (Sand), 3-methyl-5-(2,2,3-trimethylcyclopent-3-en-1-yl)pentan-2-ol] | prolongs hair growth ex vivo | stimulatory effect | 137.5 ± 12.5 arbitrary units | prolongs anagen | 63% | 38%
2 | Nc1cc(N2CCCCC2)nc(N)[n+]1[O-] [#5 Minox), Minoxidil] | – | – | 123.1 ± 12.16 arbitrary units | – | 77% | 23%
